Source: US9763908B2, “Composition containing monoacetyldiglyceride compound as active ingredient for preventing or treating atopic dermatitis” (ENZYCHEM LIFESCIENCES CORPORATION, priority 2013, dated 2017)

Assays:
[1] = test system: sepsis animal model; conditions: cecal-ligation-puncture sepsis model; stated as known; cited from earlier work
[2] = GLP toxicity test; stated as known; cited from earlier work
[3] = test system: atopic symptoms in patients; test: Observation of atopic symptom alleviation in patients with atopic; format: in vivo, human; conditions: 500 mg/day; 2 weeks (severe symptoms) or 2 days (mild skin rash); FIGS. 7 and 8
Method: To patients with severe atopic symptoms, the EC-18 was administrated every day at a dose of 500 mg/day for 2 weeks and atopic symptoms change which was taken were shown in FIG. 7. To a patient having a mild skin rash, the EC-18 was administrated every day at a dose of 500 mg/day for 2 days and atopic symptoms change which was taken were shown in FIG. 8.

[4] = test system: IL-4; test: IL-4 level in serum (ELISA) of mice with DNCB-induced atopic dermatitis after oral EC-18; format: in vivo, mouse
Method: (§1) DNCB (1-Chloro-2,4-dinitrobenzene, Sigma Aldrich) was diluted to 0.2% by the solvent in which olive oil and acetone were mixed in a ratio of 1:4. Diluted DNCB was applied onto back of each 7-week-old Balb/c mouse whose hairs on back were removed. During the first week application was made seven times continuously, and from the second week, application was made every two days to induce atopy.
A mixture of EC-18 and olive oil was orally administrated to the mouse 7 times during the first week by 100 μl each time in dose of 2 mq/rat, and after then, for 11 times, was administered orally by 100 μl each time in dose of 1 mg/rat, that is the mixture was orally administrated totally 18 times. For the measurement of IL-4, blood was collected from veins under the eyes of mice treated, through ocular blood (Eye bleeding) method. […] After collecting the blood of about 350 μl in the EP tube, the blood was centrifuged to separate only serum and IL-4 present in the serum was analyzed by ELISA (enzyme-linked immunosorbent assay) method. […] When the color development is completed, the stop solution (2N H2SO4+DW) was dispensed by 100 μl, and the amount of color development at 450 nm wavelength was measured at ELISA Reader. […]

[5] = test system: DNCB-induced atopic dermatitis in Balb/c mouse; test: Visual inspection of the degree of atopic disease in the DNCB-induced mouse model; format: in vivo; conditions: score 0 to 12
Method: as §1
Atopic disease models commonly used in the laboratory is a technique that induces contact Hypersensitivity (CHS) by sensitization to DNCB (1-Chloro-2,4-dinitro-benzene). This technique is a technique of inducing atopic by diluting DNCB with a solvent in which acetone and olive oil are mixed in a ratio of 4:1 to be 0.2%, and then smearing the diluted on the skin, and is for the experiment for adjusting and maintaining the expression time so that artificially severe atopy-like appearance appears could be observed two weeks after the smearing. The degree of atopic disease was evaluated by dividing the state of erythema/emorrhage, scarring/dryness, edema), excoriation/erosion which are induced on the skin, respectively into three steps (0=null, 1=mild, 2=moderate, 3=severe) and then assigning the score up to 12 from zero. It was induced in the experimental group and the control group that the time when severe atopic status ((visual inspection index of 10) is reached was two weeks after the smearing of DNCB. Further, in order to maintain this condition, after two weeks, DNCB smearing was performed every two days.
FIG. 4 is a photograph showing the degree of atopic disease for 3 weeks in mice of the EC-18 administration group (test group) and the mice of olive oil administration group (control group). […] In contrast, in the test group the administration of EC-18, visual inspection index was changed to 1 point after one week, 8 points after two weeks and 3 points after three weeks.

[6] = test system: IFN-γ; test: IFN-γ from ConA-activated lymphocytes of normal healthy people given EC-18 for four weeks (ELISA); format: in vivo, human
Method: (§2) EC-18 was administered to the normal healthy people (36 people) four weeks. EC-18 Lymphocytes separated from the blood before administration and after administration were incubated with ConA (concanavalin A). In order to measure the cytokine (IFN-γ and IL-4) which is separated from the lymphocyte (T cell) activated by Con A, culture medium was incubated for 42 hours, and were stored frozen. Purified antibody (capture antibody) of cytokine to be measured was dispensed to well (Nunc-immuno module, polysorp) by 0.2 μg/well, and left overnight at 4° C. to coat antigen. After well washing, blocking buffer (1% bovine serum albumin) treatment was performed for about 1 hour to inhibit the nonspecific binding. After washing the well, a cell culture solution was placed into each well and the antibody was combined with coating antigen for 2 hours. […] After approximately 10-30 minutes, stop solution was added into the well and absorbance at 450-570 nm was measured with Automatic Microplate reader (Molecular Devices, CA, USA). In the same manner, absorbance according to cytokine solution concentration was measured to plot standard curve, and the amount of cytokine contained in the sample was calculated by substituting the absorbance of the sample group. The change amount of cytokine calculated in this manner and significance (P<0.05) were shown in flowing Table 1 and FIGS. 5-6.

[7] = test system: IgE; test: IgE level in serum (ELISA) of mice with DNCB-induced atopic dermatitis after oral EC-18; format: in vivo, mouse
Method: as §1
Using the serum separated from the mouse blood, was measured the expression levels of IgE in the ELISA method as shown in Experimental Example 1. In IgE ELISA for the mouse, IgE capture antibody (BD bioscience) was diluted with 1×PBS to 2 μg/ml, dispensed to each of 96-well plate (Thermo) by 200 μl, coated for 12 hours, washed using a wash buffer in which 0.05% tween 20 was diluted in 1×PBS. After washing three times, 1% BSA was dispensed to each well by 200 μl and blocking buffer was placed for 1 hour at room temperature (RT) conditions, and then final washing was performed._Thereafter, the serum obtained from the mice was dispensed to each well by 100 μl, and the wells were placed for reaction at room temperature for 1 hours after dispensing, and unreacted IgE is washed under the same conditions. […] When the color development is completed, the stop solution (2N H2SO4+DW) was dispensed by 50 μl, and the amount of color development at 450 nm wavelength was measured. […]

[8] = test system: IL-4; test: IL-4 from ConA-activated lymphocytes of normal healthy people given EC-18 for four weeks (ELISA); format: in vivo, human
Method: as §2

[9] = DNCB-induced atopic dermatitis model animals

CCCCC/C=C\C/C=C\CCCCCCCC(=O)OC(COC(C)=O)COC(=O)CCCCCCCCCCCCCCC (centres unmarked) [EC-18, 1-palmitoyl-2-linoleoyl-3-acetylglycerol]
survivability ratio of animals [1]: increases survivability ratio of animals | toxicity [2]: no-toxicity | atopic symptoms change [3]: the atopic symptoms are relaxed | IL-4 level compared to the untreated group (olive oil treatment group), in words [4, 9]: significantly decreased | reduction of IL-4 level ([4]; serum, two weeks vs one week after administration, oral EC-18 in olive oil, olive oil control approximately 50%): 80% | visual inspection index ([5]; after one week, olive oil control 3 points): 1 point | visual inspection index ([5]; after three weeks, olive oil control 6 points): 3 points | visual inspection index ([5]; after two weeks, olive oil control 10 points): 8 points | IFN-γ after EC-18 administration ([6]; N = 36, four weeks of administration, before administration 686.4 ± 162.2, P 0.473): 611.9 ± 209.7 pg/mL | expression level of Th1 cytokine (IFN-γ), in words ([6]; normal subjects, 4 weeks, FIG. 6): the change did not occur uniformly | IgE level compared to the untreated group (olive oil treatment group), in words [7, 9]: significantly decreased | reduction of IgE level ([7]; serum, two weeks vs one week after administration, oral EC-18, olive oil control approximately 22%): about 50% | IL-4 after EC-18 administration ([8]; N = 36, four weeks of administration, before administration 246.6 ± 186.9, P <0.001): 96.1 ± 64.2 pg/mL | expression level of Th2 cytokine (IL-4), in words ([8]; normal subjects, 4 weeks, FIG. 5): reduced the expression levels of Th2 cytokine (IL-4)
